Test results as given in patent US5716950A, “Diazacycloalkanealkylsulfonamide derivatives” (Nippon Shoji Kabushiki Kaisha, priority 1994, dated 1998).
pEC50: −log10 of the molar value. Read-outs that look alike come from different tables or passages of the source.

Tests used:
[1] = test system: mouse biphasic allergic dermal reaction; assay: Mouse Biphasic Allergic Dermal Reaction; format: in vivo, Female Balb/c mice; conditions: for inhibition in vivo at 1 mg/kg / inhibition in vivo at 0.1 mg/kg: Mus musculus, oral; for suppression of the late allergic reaction (in words): edema after 24 hours
Procedure: Female Balb/c mice (weighing 18 to 25 g) were subjected to passive sensitization by intravenous administration of 1 ml of anti-DNP monoclonal IgE antibody showing 1:1024 of antibody titer. 24 hours after the sensitization, 25 μl of 0.15% dinitrofluorobenzene (DNFB) were applied to both sides of right and left auricles of mouse for inducing allergic reactions. Thickness of auricles were measured using Dial Thickness Gauge before the challenge with DNFB, and 1 and 24 hours after the challenge. And then, increase in thickness of auricles at 1 hour after the challenge (edema caused by immediate allergic reaction) and that at 24 hours after the challenge (edema caused by late allergic reaction) were calculated against the thickness of auricles before the challenge with DNFB, respectively.
Suppression rate was expressed by relative ratio (%) to the value in control in which a solvent was administered.
Test compounds, diphenhydramine which is a existing classical antihistamic drug, amlexanox which is an antiallergic drug and dexamethasone which is a steroidal drug were administered orally (partly intraperitoneally) once before antigen challenge.
The above test was performed by using a mouse biphasic allergic dermal reaction model which was a new model [see, Sakurai T, Inagaki, N. and Nagai, H Life Sci., 54, PL291-295 (1994)]. In this model, the immediate allergic reaction was induced by mediator release from mast cell at 1 hour after the challenge, and the late allergic reaction with inflammatory cells such as eosinophil (edema after 24 hours) was induced after 24 hours from the challenge.

[2] = test system: passive cutaneous anaphylaxis (PCA); assay: Activity of suppressing passive cutaneous anaphylaxis (PCA); format: in vivo, Male Wistar rats; conditions: Rattus norvegicus, po, 1 h, 10 mg/kg-po, 1 hour before antigen challenge; read-out: % suppression of rat PCA
Procedure: Test compounds were examined on their antiallergic activities. […] After 48 hours, 1.0 ml of 0.5 % Evans Blue saline solution containing DNP.BSA (1 mg in protein) was injected through the tail vein to induce allergic reaction. After 30 minutes, the rats were sacrificed by bleeding and the skin of back where dye was leaked out was flayed and put it into 20 ml test tube with ground stopper. Thereto was added 1.0 ml of 1N KOH aqueous solution and then it was allowed to stand at 37° C. in incubator overnight for lysing. To this solution was added 8.3 ml of a mixture of acetone and 0.6N phosphoric acid (13:5) and the mixture was mixed well and then was filtered to remove the insoluble materials.
The test compounds were administered orally 1 hour before the antigen challenge. Suppression rate was expressed by percentage to the value in control where 0.5% aqueous methylcellulose solution was orally administered.

male ICR mice = assay: Toxicity Test (mouse acute toxicity, minimum lethal dose); format: in vivo; conditions: po, observed for 24 hours, head prints (10 mg/kg-po)
Excerpt: The test compounds were orally administered to male ICR mice (weighing to 30 g) after fasting overnight. […] The results were expressed by minimum lethal dose. Toxicity of any compounds of the present invention were weaker than that of ketotifen which was a reference compound.

[3] = test system: extracted ileum (histamine contraction); assay: Antihistaminic activity: suppression of histamine-induced contraction of extracted ileum; design: species or system Female Hartley guinea pig; conditions: histamine 3×10^-7 M; guinea pig ileum; 50% suppression of contraction; read-out: anti-His in extracted ileum EC50
Procedure: Female Hartley guinea pig (weighing 500 to 650 g) were sacrificed and the ileum (length of about 10 to 25 cm) was extracted from the ileocecum to prepare a specimen (length of 3 cm). […] After allowing to stand for 60 minutes to make the specimen stable, a histamine (3×10^-7 M) was applied to the specimen at single application. Contraction of the specimen was determined and recorded using isotonic transducer. After repeating application of a histamine to make the contraction constant, a diluted solution of the test compound was applied. Three minutes after the application, a histamine was then added and an activity of suppressing contraction was examined.

[4] = 1 h, read-out: immediate edema (1 hr) suppression (%)
[5] = 24 h, read-out: late edema (24 hr) suppression (%)

Structure (SMILES)	inhibition in vivo at 1 mg/kg [1, 4] [%]	inhibition in vivo at 0.1 mg/kg [1, 5] [%]	inhibition in vivo at 1 mg/kg [1, 5] [%]	suppression of the late allergic reaction (in words) [1]	inhibition in vivo at 10 mg/kg [2] [%]	mouse acute toxicity (lethal dose) (male ICR mice) [mg/kg]	pEC50 [3]	inhibition in vivo at 0.1 mg/kg [1, 4] [%]
O=S(=O)(CCCCCCN1CCN(C(c2ccc(F)cc2)c2ccccn2)CC1)NC1CC1 (stereo not shown) [Example 56]	15.8	3.8	34.6	showed strong activity of suppressing the late allergic reaction	94.5	> 500	6.36	
O=S(=O)(CCCCCCN1CCN(C(c2ccccc2)c2cccc(Cl)c2)CC1)NC1CC1 (stereo not shown) [Example 120]	56.5	7.1	25	showed strong activity of suppressing the late allergic reaction	93.4	> 500	6.15	26.1
O=S(=O)(CCCCCCN1CCN(C(c2ccccc2)c2ccc(Cl)cc2)CC1)NC1CCC1 (stereo not shown) [Example 128]	28	36	40	showed strong activity of suppressing the late allergic reaction	86.1	> 500	6.49	32
O=S(=O)(CCCCCCN1CCN(C(c2ccccc2)c2ccc(Cl)cc2)CC1)NC1CC1 (stereo not shown) [Example 54]	52.4	37	51.9	showed strong activity of suppressing the late allergic reaction	89.2	> 500	6.38	19
O=S(=O)(CCCCCCN1CCN(C(c2ccccc2)c2ccc(Cl)cc2)CC1)NC1CCCCC1 (stereo not shown) [Example 143]	40	4	28	showed strong activity of suppressing the late allergic reaction	87.8	> 500	5.55	24
O=S(=O)(CCCCCCN1CCN(C(c2ccc(F)cc2)c2ccccn2)CC1)NC1CCCC1 (stereo not shown) [Example 61]		37	44.4	showed strong activity of suppressing the late allergic reaction	89.7	> 500	6.51	5
NS(=O)(=O)CCCCCCCCN1CCN(C(c2ccc(F)cc2)c2ccccn2)CC1 (stereo not shown) [Example 13]					73.8	> 500	6.49	
